Results: the NIST ThermoML archive (doi:10.1016/j.fluid.2017.06.019)

Conditions: 364.65 K, Coaxial cylinder method

CCC [propane]
Conditions	thermal conductivity [W/m/K]
3818 kPa, Gas	0.04192
3819 kPa, Gas	0.04192
3820 kPa, Gas	0.04192
3826 kPa, Gas	0.04799
3827 kPa, Gas	0.05041
3828 kPa, Gas	0.05375
3829 kPa, Gas	0.05683
3830 kPa, Gas	0.05989
3831 kPa, Gas	0.06347
3832 kPa, Gas	0.0673
3833 kPa, Gas	0.07157
3834 kPa, Gas	0.0754
3835 kPa, Gas	0.07969
3836 kPa, Gas	0.08397
3837 kPa, Gas	0.08791
3838 kPa, Gas	0.09202
3839 kPa, Gas	0.09605
3840 kPa, Gas	0.1002
3841 kPa, Gas	0.1044
3842 kPa, Gas	0.1088
3843 kPa, Gas	0.1131
3844 kPa, Gas	0.1173
3845 kPa, Gas	0.1218
3846 kPa, Gas	0.1263
3847 kPa, Gas	0.1307
3848 kPa, Gas	0.135
3849 kPa, Gas	0.14
3850 kPa, Gas	0.1445
3851 kPa, Gas	0.1491
3852 kPa, Gas	0.1538
3853 kPa, Gas	0.1584
3854 kPa, Gas	0.1635
3855 kPa, Gas	0.1693
3856 kPa, Gas	0.1732
3857 kPa, Gas	0.1782
3858 kPa, Gas	0.1831
3859 kPa, Gas	0.1881
3860 kPa, Gas	0.1933
3861 kPa, Gas	0.1983
3862 kPa, Gas	0.2036
3863 kPa, Gas	0.2089
3864 kPa, Gas	0.2141
3865 kPa, Gas	0.2194
3866 kPa, Gas	0.2249
3867 kPa, Gas	0.2303
3868 kPa, Gas	0.2361
3869 kPa, Gas	0.2404
3870 kPa, Liquid	0.2611
3871 kPa, Liquid	0.2548
3872 kPa, Liquid	0.249
3873 kPa, Liquid	0.2424
3874 kPa, Liquid	0.2366
3875 kPa, Liquid	0.2306
3876 kPa, Liquid	0.2246
3877 kPa, Liquid	0.2189
3878 kPa, Liquid	0.2127
3879 kPa, Liquid	0.2068
3880 kPa, Liquid	0.2008
3881 kPa, Liquid	0.1952
3882 kPa, Liquid	0.1898
3883 kPa, Liquid	0.1838
3884 kPa, Liquid	0.1778
3885 kPa, Liquid	0.1728
3886 kPa, Liquid	0.1668
3887 kPa, Liquid	0.1613
3888 kPa, Liquid	0.1556
3889 kPa, Liquid	0.1503
3890 kPa, Liquid	0.1444
3891 kPa, Liquid	0.1391
3892 kPa, Liquid	0.1337
3893 kPa, Liquid	0.1279
3894 kPa, Liquid	0.1224
3895 kPa, Liquid	0.117
3896 kPa, Liquid	0.1115
3897 kPa, Liquid	0.1061
3898 kPa, Liquid	0.1008
3899 kPa, Liquid	0.09527
3900 kPa, Liquid	0.08987
3901 kPa, Liquid	0.08442
3902 kPa, Liquid	0.07906
3903 kPa, Liquid	0.07632
3904 kPa, Liquid	0.0735
3905 kPa, Liquid	0.07087
3906 kPa, Liquid	0.06861
3907 kPa, Liquid	0.06633
3908 kPa, Liquid	0.06424
3909 kPa, Liquid	0.06367
3910 kPa, Liquid	0.06367
3911 kPa, Liquid	0.06367
3912 kPa, Liquid	0.06367
3913 kPa, Liquid	0.06367
3914 kPa, Liquid	0.06367
3915 kPa, Liquid	0.0637
3920 kPa, Liquid	0.06366
3925 kPa, Liquid	0.06366
3930 kPa, Liquid	0.06362
3935 kPa, Liquid	0.06364
3940 kPa, Liquid	0.06364
3945 kPa, Liquid	0.06362
3950 kPa, Liquid	0.06362
3955 kPa, Liquid	0.06362
3960 kPa, Liquid	0.06362
3965 kPa, Liquid	0.06362
3970 kPa, Liquid	0.06362
3975 kPa, Liquid	0.0636
3980 kPa, Liquid	0.0636
4000 kPa, Liquid	0.06363
4020 kPa, Liquid	0.06367
4040 kPa, Liquid	0.06367
4060 kPa, Liquid	0.06371
